Tests used:
P-gp = target: T1, P-gp (Canis lupus familiaris, UniProt C0KKU9); assay: Rhodamine 123 (Rh123) transport in canine ileal enteroids; type: cell-based; conditions: Rh123 1-50 μM, 30 min incubation, without verapamil
T1 construct: Therefore, P-gp of the enteroids have maintained their transportation ability; endogenous in cells; host or cells: canine ileal enteroids (3D organoids from adult intestinal stem cells of dogs)
Description: Canine ileal enteroids were passaged into 15 μL per well of […] ® in chambered cover glass system (Lab-Tek, Chambered Coverglass 8 well) and cultured with 300 μL per well of CMGF+ media for 2 days. […] Rh123 transport experiments were divided into: (1) Control [CTR] […] Enteroids were treated for 30 min and then washed with room-temperature PBS.
Confocal microscopy (SP5 X MP LAS X; Leica) at the Iowa State University Roy J. Carver High Resolution Microscopy Facility was used to acquire images to detect green fluorescence within the luminal aspect of the enteroids. Fluorescence intensity was controlled by the luminal area to control for the size variation of the enteroids and quantified using the ImageJ software.
Student's t-tests were used to compare study groups (CTR vs. TRT) for the various doses of Rh123. The Benjamini-Hochberg Procedure was performed to control the risk of false positive for multiple comparisons. All statistical analyses were perform using GraphPad Prism 8.2.1 (San Diego, Calif.) and R 3.5.1. P<0.05 were considered as statistically significant.

TCC organoids [1] = assay: MTT cell viability (cytotoxicity) assay, TCC organoids; type: cell-based, canine; conditions: for effect on TCC cell viability (MTT assay): old, much passaged TCC organoids
Description: Transitional Cell Carcinoma (TCC) Organoid Isolation and Culture. Canine bladder cancer cells for TCC organoids were isolated from urine (TCC #1) or biopsies (TCC #2) of dogs with transitional cell carcinoma. Briefly, urine was centrifuged and washed or small biopsies were washed with 1×Complete Chelation Solution (CCS) and vortexing up to 6 times, then incubated in 20-30 mM EDTA for 1 hour at 4° C. on a rocker. FBS and CCS was added to stop EDTA chelation, mixed, and the supernatant containing cancer cells was put in a new tube. Samples were centrifuged at 150 g for 5 minutes at 4° C., resuspended in DMEM/F12, centrifuged again, and the pellet was resuspended in 120 ul […]®. […]® droplets were then plated at 30 ul/well […]®/cells on 24-well plates. Complete Media with Growth Factors (CMGF+) containing Rock inhibitor and GSK inhibitor was added for 2-3 days at 37 C, and after 2-3 days, TCC organoids were cultured in CMGF+ media without inhibitors. TCC organoids were passaged every 4-7 days with TrypLE Express to dissociate organoids to single cells.
MTT Cell Viability Assay (Cytotoxicity Assay). Organoids from healthy intestine or transitional cell carcinoma (TCC) were dissociated and plated at equal density in 30 ul/well […]® in 24-well plates in 500 ul/well CMGF+ growth medium. On Day 1-4 after passage, organoids were incubated with the indicated drug for 48 or 96 hours. Cytotoxicity was determined using 3-(4,5-dimethylthiazol-2-yl) 2,5-diphenyl tetrazolium bromide (MTT) at a final concentration of 0.5 mg/mL for 1.5 hr. After medium removal, 200 ul/well cold DMSO was used to dissolve the formazan dye crystals and absorbance was read at 570 nm using a plate reader (SpectraMax 190, Molecular Devices).
As DMSO freezes […] but it is preferable to use cold media (4° C.) to dissolve the […]®. Thus, put DMSO briefly in 4° C. fridge or −20° C. freezer and remove before it all freezes, then use cold DMSO, pipette up and down vigorously, shake the plate, put plate in freezer briefly, etc. to try to get the […]® and formazan dye crystals to dissolve.

TCC organoids [2] = assay: Ki-67 IHC staining (proliferation) of TCC organoids; type: cell-based, canine
TCC organoids [3] = assay: Morphology of treated TCC organoids; type: cell-based, canine; conditions: fenoldopam-treated TCC organoids
canine UC organoids = assay: MTT assay for metabolic activity of urine-derived UC organoids; type: cell-based; conditions: incubation for 24-48 hours
Description: Free-catch urine was collected from one dog at time of UC diagnosis. Samples were centrifuged and supernatant was removed. The resulting pellet was washed with phosphate-buffered saline (PBS), then incubated in complete chelating solution (CCS) with EDTA and plated in […]® for establishment of organoid culture within one week. Sub-samples of differentiated UC organoids were taken for 3-(4,5-dimethylthiazol-2-yl)-2,5-diphenyltetrazolium bromide (MTT) assay for metabolic activity assessment after incubation with chemotherapeutic agents. Remaining UC organoids were characterized with H&E, RNA in-situ hybridization (RNA-ISH), and immunohistochemistry (IHC) staining techniques.

T1 sequence (C0KKU9 1-1281): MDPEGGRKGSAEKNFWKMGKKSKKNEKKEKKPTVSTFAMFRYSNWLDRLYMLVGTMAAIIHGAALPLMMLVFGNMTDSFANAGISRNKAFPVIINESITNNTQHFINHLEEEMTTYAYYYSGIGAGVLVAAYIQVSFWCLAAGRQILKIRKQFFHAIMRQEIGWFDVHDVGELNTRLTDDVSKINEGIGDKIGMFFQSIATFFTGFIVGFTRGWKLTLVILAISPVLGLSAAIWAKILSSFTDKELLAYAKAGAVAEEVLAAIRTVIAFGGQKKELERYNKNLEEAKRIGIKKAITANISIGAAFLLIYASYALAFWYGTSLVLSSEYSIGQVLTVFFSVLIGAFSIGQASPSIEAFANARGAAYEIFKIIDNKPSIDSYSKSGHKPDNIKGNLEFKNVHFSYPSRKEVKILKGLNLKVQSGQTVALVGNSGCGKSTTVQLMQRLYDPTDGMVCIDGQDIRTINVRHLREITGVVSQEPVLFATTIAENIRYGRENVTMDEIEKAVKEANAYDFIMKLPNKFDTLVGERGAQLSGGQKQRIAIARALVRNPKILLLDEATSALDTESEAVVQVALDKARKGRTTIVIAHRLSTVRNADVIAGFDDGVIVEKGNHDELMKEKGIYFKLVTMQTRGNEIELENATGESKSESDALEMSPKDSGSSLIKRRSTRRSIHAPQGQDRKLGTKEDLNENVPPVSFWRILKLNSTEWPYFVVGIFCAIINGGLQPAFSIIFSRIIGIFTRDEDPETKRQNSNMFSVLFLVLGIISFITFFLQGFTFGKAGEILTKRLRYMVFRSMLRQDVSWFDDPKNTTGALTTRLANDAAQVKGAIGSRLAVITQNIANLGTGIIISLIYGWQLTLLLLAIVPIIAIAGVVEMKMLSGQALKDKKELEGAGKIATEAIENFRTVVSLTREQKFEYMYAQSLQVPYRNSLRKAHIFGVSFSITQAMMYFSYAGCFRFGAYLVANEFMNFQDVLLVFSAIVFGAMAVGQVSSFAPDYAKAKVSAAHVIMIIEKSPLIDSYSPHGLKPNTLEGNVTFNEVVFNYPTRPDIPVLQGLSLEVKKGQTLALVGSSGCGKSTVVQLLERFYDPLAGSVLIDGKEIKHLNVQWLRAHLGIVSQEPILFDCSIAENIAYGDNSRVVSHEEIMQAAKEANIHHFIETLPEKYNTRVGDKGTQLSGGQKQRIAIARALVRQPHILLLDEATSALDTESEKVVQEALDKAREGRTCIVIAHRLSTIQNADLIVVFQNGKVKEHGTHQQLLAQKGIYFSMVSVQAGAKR

Which Rh123 luminal transportation (P-gp) does the source give for Rhodamine 123 [Rh123] here?
Its Rh123 luminal transportation is “significant dose response”.

How did the “effect on TCC cell viability (MTT assay)” value (TCC organoids [1]; other plate, dose not given) turn out when `CC[C@]1(O)C[C@@H]2CN(CCc3c([nH]c4ccccc34)[C@@](C(=O)OC)(c3cc4c(cc3OC)N(C)[C@H]3[C@@](O)(C(=O)OC)[C@H](OC(C)=O)[C@]5(CC)C=CCN6CC[C@]43[C@@H]65)C2)C1` [Vinblastine] was run?
Its value is “slight stimulatory effect”.

Which results are given for `COc1cccc2c1C(=O)c1c(O)c3c(c(O)c1C2=O)C[C@@](O)(C(=O)CO)C[C@@H]3O[C@H]1C[C@H](N)[C@H](O)[C@H](C)O1` [Doxorubicin]?
Ki-67 IHC (proliferation) (TCC organoids [2]; 0.1 μM Dox, once): 10-20 % of control; TCC organoid cell viability (MTT) (TCC organoids [1]; 10 μM doxorubicin): 50 % of control; effect on TCC organoid cell viability (MTT), other runs (TCC organoids [1]; sometimes observed): small 20% effect or no effect

How did the “decrease of Ki-67 staining” value (TCC organoids [2]; 0.1 μM Piroxicam) turn out when `CN1C(C(=O)Nc2ccccn2)=C(O)c2ccccc2S1(=O)=O` [Piroxicam] was run?
Its value is 50%.

What about the “increase of Ki-67 IHC staining” value (TCC organoids [2]; 1-10 μM Piroxicam) of the same molecule?
The value was 2-3 fold.

What about the “cell viability (MTT)” value (TCC organoids [1]; 1-10 μM, 48 hours or 4 days, organoid type not restated) of the same molecule?
The value was ≥ 80 % of control.

`Oc1ccc(C2CNCCc3c2cc(O)c(O)c3Cl)cc1` (centres unmarked) [Fenoldopam] was tested. Which “decrease of TCC organoid Ki-67 (proliferation)” value (TCC organoids [2]; 1 nM Fenoldopam) did it give?
Its value is “about 50%”.

And the “effect on TCC organoid Ki-67 (proliferation)” value (TCC organoids [2]; 10 μM Fenoldopam)?
Its value is “did not have much effect”.

What about the “lumens/holes in the TCC organoids” value (TCC organoids [3]) of the same molecule?
The value was “getting bigger”.

For `NCCc1ccc(O)c(O)c1` [Dopamine], which “increase of Ki-67 IHC staining” value (TCC organoids [2]; 0.1, 1, 10 μM) is on record?
The value was “about 2 fold”.

How did the “effect on TCC cell viability (MTT assay)” value (TCC organoids [1]; other plate, dose not given) turn out when `C[C@H](NC(=O)c1c(C(F)F)nn(C)c1Oc1cccc(C(F)(F)F)c1)c1ccc(C(=O)O)cc1` [E-7046] was run?
The value was “slight stimulatory effect”.

How did the “metabolic activity of UC organoids (MTT)” value (canine UC organoids) turn out when `N.N.[Cl][Pt][Cl]` [cisplatin] was run?
The value was “reduced metabolic activity”.

How did the “TCC cell viability (MTT assay)” value (TCC organoids [1]; 1 μM Epacadostat, 48 hours) turn out when `NS(=O)(=O)NCCNc1nonc1C(=NO)Nc1ccc(F)c(Br)c1` [Epacadostat] was run?
The value was “about 80 % of control”.

And the “decrease of TCC cell viability (MTT assay)” value (TCC organoids [1]; other doses of Epacadostat, 48 hours)?
The value was “not at the other doses”.

How did the “effect on TCC cell viability (MTT assay)” value (TCC organoids [1]; 1-10 μM) turn out when `COc1cc(OC)cc(N(CCNC(C)C)c2ccc3ncc(-c4cnn(C)c4)nc3c2)c1` [Erdafitinib] was run?
The value was “no effect”.

From patent publication US20210087533A1, “CANINE EPITHELIAL ORGANOIDS AND METHODS OF MAKING, RECOVERING, AND USE” (Iowa State University Research Foundation, Inc., priority 2019, published 2021)
